Measurements taken from US9597330B2, “Drugs for treating respiratory diseases” (DAIICHI SANKYO COMPANY, LIMITED, priority 2013, dated 2017).

Target: hNav 1.7 (Homo sapiens (Human), UniProt Q15858)
Experiment: Electrophysiological evaluation, automated patch clamp (IonWorks Quattro, Population Patch Clamp mode)
Assay type: cell-based
Conditions: HEK293A cells stably expressing hNav 1.7/β1/β2; response to second depolarization pulse, pre-pulse potential set to V1/2; read-out: hNav1.7 IC50

Chain of hNav 1.7 (Q15858 whole entry): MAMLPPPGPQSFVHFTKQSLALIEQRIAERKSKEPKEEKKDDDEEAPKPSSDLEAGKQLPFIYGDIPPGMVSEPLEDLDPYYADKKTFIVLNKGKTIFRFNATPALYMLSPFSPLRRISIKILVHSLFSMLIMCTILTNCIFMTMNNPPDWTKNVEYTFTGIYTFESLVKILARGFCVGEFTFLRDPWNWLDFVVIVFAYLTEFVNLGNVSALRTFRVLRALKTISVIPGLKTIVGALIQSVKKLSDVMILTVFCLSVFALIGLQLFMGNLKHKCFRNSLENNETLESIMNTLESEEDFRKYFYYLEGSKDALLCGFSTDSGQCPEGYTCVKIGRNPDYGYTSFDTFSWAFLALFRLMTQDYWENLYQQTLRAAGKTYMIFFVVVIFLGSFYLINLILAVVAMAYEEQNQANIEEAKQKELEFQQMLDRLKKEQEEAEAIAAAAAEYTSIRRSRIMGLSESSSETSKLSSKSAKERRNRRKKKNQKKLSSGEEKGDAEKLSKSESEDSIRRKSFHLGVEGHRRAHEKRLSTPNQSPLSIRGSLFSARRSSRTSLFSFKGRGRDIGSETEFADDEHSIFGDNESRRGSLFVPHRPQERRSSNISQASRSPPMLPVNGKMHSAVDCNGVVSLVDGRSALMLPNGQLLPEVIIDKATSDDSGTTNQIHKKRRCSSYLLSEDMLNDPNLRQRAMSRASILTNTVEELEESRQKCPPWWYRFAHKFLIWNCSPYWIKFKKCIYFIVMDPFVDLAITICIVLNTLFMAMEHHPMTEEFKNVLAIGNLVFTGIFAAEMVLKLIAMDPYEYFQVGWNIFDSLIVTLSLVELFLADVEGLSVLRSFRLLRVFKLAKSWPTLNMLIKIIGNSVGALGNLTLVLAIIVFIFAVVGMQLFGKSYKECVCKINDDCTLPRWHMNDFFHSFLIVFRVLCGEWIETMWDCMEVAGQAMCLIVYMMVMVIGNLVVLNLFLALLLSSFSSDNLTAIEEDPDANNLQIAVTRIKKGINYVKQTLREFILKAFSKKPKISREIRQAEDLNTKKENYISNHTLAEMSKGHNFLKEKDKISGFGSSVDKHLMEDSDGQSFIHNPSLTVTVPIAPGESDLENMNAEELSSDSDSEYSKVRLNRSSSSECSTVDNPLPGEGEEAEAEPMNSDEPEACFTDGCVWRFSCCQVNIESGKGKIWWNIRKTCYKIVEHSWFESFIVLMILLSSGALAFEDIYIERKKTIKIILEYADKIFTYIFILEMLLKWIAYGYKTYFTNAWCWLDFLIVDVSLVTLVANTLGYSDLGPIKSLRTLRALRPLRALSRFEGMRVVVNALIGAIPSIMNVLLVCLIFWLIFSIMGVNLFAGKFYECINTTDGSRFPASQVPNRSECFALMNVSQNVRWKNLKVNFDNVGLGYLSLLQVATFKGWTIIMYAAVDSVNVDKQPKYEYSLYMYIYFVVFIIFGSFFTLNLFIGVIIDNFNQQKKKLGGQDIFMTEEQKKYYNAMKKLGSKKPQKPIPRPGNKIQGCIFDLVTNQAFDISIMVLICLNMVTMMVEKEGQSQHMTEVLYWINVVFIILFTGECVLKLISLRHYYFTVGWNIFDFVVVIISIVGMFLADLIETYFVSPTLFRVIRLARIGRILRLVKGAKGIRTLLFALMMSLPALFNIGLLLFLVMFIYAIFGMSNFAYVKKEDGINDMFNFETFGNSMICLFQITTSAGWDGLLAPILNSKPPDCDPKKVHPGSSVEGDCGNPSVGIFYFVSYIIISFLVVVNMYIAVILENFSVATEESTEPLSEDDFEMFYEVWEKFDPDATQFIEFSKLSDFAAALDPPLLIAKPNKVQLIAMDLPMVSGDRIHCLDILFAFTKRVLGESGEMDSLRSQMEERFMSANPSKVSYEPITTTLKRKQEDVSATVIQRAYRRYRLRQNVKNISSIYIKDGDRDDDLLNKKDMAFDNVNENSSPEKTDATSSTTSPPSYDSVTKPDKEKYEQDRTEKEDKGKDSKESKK
Chain of hNav 1.7 (Q07699 19-218 partner): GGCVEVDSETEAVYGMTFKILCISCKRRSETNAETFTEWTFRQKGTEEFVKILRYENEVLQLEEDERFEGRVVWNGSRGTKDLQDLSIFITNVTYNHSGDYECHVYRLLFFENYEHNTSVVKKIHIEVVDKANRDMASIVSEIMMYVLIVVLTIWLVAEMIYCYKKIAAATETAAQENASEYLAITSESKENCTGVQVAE
Chain of hNav 1.7 (O60939 30-215 partner): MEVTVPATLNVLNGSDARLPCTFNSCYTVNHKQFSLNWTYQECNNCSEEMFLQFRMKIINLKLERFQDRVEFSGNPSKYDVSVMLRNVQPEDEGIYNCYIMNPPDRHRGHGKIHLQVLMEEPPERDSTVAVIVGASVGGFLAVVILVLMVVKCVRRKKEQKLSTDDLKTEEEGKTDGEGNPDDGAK

Cn1nccc1[C@H]1CCCCC[C@@H]1Oc1cc(F)c(S(=O)(=O)Nc2ccncn2)cc1F (relative stereo) [Compound 9, 2,5-Difluoro-4-{[(1S*,2R*)-2-(1-methyl-1H-pyrazol-5-yl)cycloheptyl]oxy}-N-(pyrimidin-4-yl)benzenesulfonamide]
IC50: 91 nM

Cn1nccc1[C@H]1CCCCC[C@@H]1Oc1cc(F)c(S(=O)(=O)Nc2ccncn2)cc1Cl (relative stereo) [Compound 19, 5-Chloro-2-fluoro-4-{[(1S*,2R*)-2-(1-methyl-1H-pyrazol-5-yl)cycloheptyl]oxy}-N-(pyrimidin-4-yl)benzenesulfonamide]
IC50: 37 nM
